Consider ten molecules from ChEMBL document CHEMBL4229435, “Synthesis and antimicrobial activity of β-carboline derivatives with N2-alkyl modifications” (2018).

Format in all cases: functional
For test [1], the system named is [Candida] intermedia. Description: Antimicrobial activity against Candida intermedia GAI 15003 after 24 hrs by agar plate dilution method. The conditions noted are these: Sungouiella intermedia, GAI 15003, 24 h.
The subject of test [2] is Candida albicans. Description: Antimicrobial activity against Candida albicans GAI 05108 after 24 hrs by agar plate dilution method. The conditions noted are these: GAI 05108, 24 h.
For test [3], the system named is Pichia kudriavzevii. The test can be described thus: Antimicrobial activity against Candida krusei ATCC 14243 after 24 hrs by agar plate dilution method. The conditions noted are these: ATCC 14243, 24 h.
The subject of test [4] is Staphylococcus aureus. Description: Antimicrobial activity against methicillin-sensitive Staphylococcus aureus ATCC 25923 after 24 hrs by agar plate dilution method. The conditions noted are these: ATCC 25923, 24 h.
Test [5] deals with Escherichia coli. The test can be described thus: Antimicrobial activity against Escherichia coli ATCC 25922 after 24 hrs by agar plate dilution method. The conditions noted are these: ATCC 25922, 24 h.
In test [6] the test system is Staphylococcus aureus. Description: Antimicrobial activity against methicillin-resistant Staphylococcus aureus GAI 11112 after 24 hrs by agar plate dilution method. The conditions noted are these: GAI 11112, 24 h.
Test [7] concerns Staphylococcus aureus. The test can be described thus: Antimicrobial activity against methicillin-resistant Staphylococcus aureus GAI 10152 after 24 hrs by agar plate dilution method. To be noted: GAI 10152, 24 h.
Test [8] deals with Staphylococcus aureus. Description: Antimicrobial activity against methicillin-resistant Staphylococcus aureus GAI 10151 after 24 hrs by agar plate dilution method. The conditions noted are these: GAI 10151, 24 h.
Test [9] has as its system Acinetobacter baumannii. Description: Antimicrobial activity against Acinetobacter baumannii GAI 07545 after 24 hrs by agar plate dilution method. The conditions noted are these: GAI 07545, 24 h.
Test [10] concerns Pseudomonas aeruginosa. The test can be described thus: Antimicrobial activity against Pseudomonas aeruginosa GAI 12066 after 24 hrs by agar plate dilution method. The conditions noted are these: GAI 12066, 24 h.
Test [11] relates to Staphylococcus aureus. Description: Antimicrobial activity against methicillin-resistant Staphylococcus aureus GAI 10153 after 24 hrs by agar plate dilution method. To be noted: GAI 10153, 24 h.

As usually defined, the MIC is the lowest concentration found to suppress growth. Read a low MIC as a more susceptible organism.

Values after ≈ are worked out from the molar mass of the structure shown.

Regarding `C[n+]1ccc2c3ccccc3n(-n3c4ccccc4c4cc[n+](C)cc43)c2c1`, the MIC was 125 µM in [1]; 500 µM in test [2]; 500 µM in [3]; 125 µM in [4]; 1000 µM in [5]; 125 µM in test [6].

With `Clc1ccc2c(c1)c1cc[n+](Cc3ccccn3)cc1n2-n1c2ccc(Cl)cc2c2cc[n+](Cc3ccccn3)cc21`, the minimum inhibitory concentration (MIC) in test [7] was more than 1000 µM; in test [8], more than 1000 µM; in test [9], more than 1000 µM; in [10] it was more than 1000 µM; in [1], 500 µM; in test [11] it was more than 1000 µM. The MIC in test [2], in test [3], in test [4] and in [5] was more than 1000 µM throughout.

For `Clc1ccc2c(c1)c1cc[n+](Cc3ccccc3)cc1n2-n1c2ccc(Cl)cc2c2cc[n+](Cc3ccccc3)cc21`, the MIC is 10 µM in test [7]; 50 µM in test [8]; 500 µM in [9]; more than 1000 µM in [10]; 10 µM in [1]; 10 µM in test [11]. Besides, the MIC in test [2] amounted to 500 µM; in [3] it was 500 µM; in [4], 10 µM; in [5], 500 µM.

With `C[n+]1ccc2c3cc(Cl)ccc3n(-n3c4ccc(Cl)cc4c4cc[n+](C)cc43)c2c1`, the MIC in test [7] is 50 µM; in test [8], 500 µM; in [9], more than 1000 µM; in [10], more than 1000 µM; in test [1] it was 50 µM; in test [11], 50 µM. The MIC was more than 1000 µM in [2], 500 µM in test [3], 50 µM in [4] and 500 µM in test [5].

As to `c1ccc2c(c1)c1ccncc1n2-n1c2ccccc2c2ccncc21`, the minimal inhibitory concentration (MIC) in [1] is 125 µM (≈ 41.8 µg/mL); in [2] it was more than 1000 µM; in [3], more than 1000 µM; in [4] it was more than 1000 µM; in [5] it was more than 1000 µM; in [6] it was more than 1000 µM.

Turning to `Clc1ccc2[nH]c3c[n+](Cc4ccccn4)ccc3c2c1`, the MIC is more than 1000 µM in test [7]; more than 1000 µM in test [8]; more than 1000 µM in test [9]; more than 1000 µM in test [10]; 500 µM in [1]; more than 1000 µM in test [11]. Moreover, the MIC in test [2], in test [3], in test [4] and in [5] was more than 1000 µM each time.

For `C[n+]1ccc2c(c1)[nH]c1ccccc12`, the MIC in test [1] was 125 µM; in test [2] it was 500 µM; in [3] it was 125 µM; in test [4], more than 1000 µM; in test [5], 1000 µM; in test [6], 1000 µM.

On to `Clc1ccc2[nH]c3c[n+](Cc4ccccc4)ccc3c2c1`, for which the MIC is 500 µM in test [7]; 500 µM in test [8]; 500 µM in test [9]; more than 1000 µM in [10]; 10 µM in [1]; 500 µM in test [11]. Besides, the MIC was more than 1000 µM in [2], 500 µM in test [3], more than 1000 µM in test [4] and more than 1000 µM in test [5].

With `c1ccc2c(c1)[nH]c1cnccc12` [NORHARMANE], the MIC in test [1] was 125 µM (≈ 21 µg/mL); in test [2], 125 µM (≈ 21 µg/mL); in test [3], 125 µM (≈ 21 µg/mL); in test [4], more than 1000 µM; in test [5], 250 µM (≈ 42 µg/mL); in test [6] it was 250 µM (≈ 42 µg/mL).

As to `C[n+]1ccc2c(c1)[nH]c1ccc(Cl)cc12` [NOSTOCARBOLINE], the MIC in test [7], in test [8], in test [9], in test [10], in [1] and in test [11] was more than 1000 µM throughout. Further, the MIC is more than 1000 µM in [2], 50 µM in test [3], more than 1000 µM in test [4] and 500 µM in [5].
